In brackets after ≈: the same amount, converted by molar mass.
What was measured:
[1] = tested on: SVMP activity of Echis romani venom; conditions: read-out: Inhibition of SVMP enzymatic activity EC50 ERO; E. romani venom; mean of n ≥ 3, range in brackets
Procedure: (§1) Throughout our medicinal chemistry campaign, compounds were evaluated for their ability to inhibit enzymatic SVMP toxin activity in vitro using a previously described fluorescent-based substrate cleavage assay against five medically important viper venoms, namely Echis romani (Roman’s carpet viper, West Africa), Crotalus atrox (Western diamondback rattlesnake, North America), Calloselasma rhodostoma (Malayan pit viper, South East Asia), Bothrops jararaca (jararaca, South America) and Bitis arietans (puff adder, Africa).
(§2) Compounds of interest were stamped onto 384-well plates at a volume of 0.91 μL at a concentration of 1 mM in 100% DMSO (D2650, Sigma-Aldrich). Positive and negative control wells were stamped with 0.91 μL of 100% DMSO. To the test wells and the venom-only positive control wells, 15 μL of venom diluted to 0.066 μg/mL in PBS was added, giving a final amount of 1 μg/well. In the no venom negative control wells, 15 μL of PBS was added. The plates were then sealed, span briefly in a Platefuge (C2000, Benchmark Scientific) and incubated at 37 °C for 25 min to allow venom-inhibitor interaction. […] Dose response plates were conducted identically and the % inhibition values at each dose were used to draw EC50 curves to estimate the EC50 value of each compound tested. All SVMP experiments were repeated independently a minimum of three times.

[2] = tested on: SVMP activity of Bothrops jararaca venom; conditions: read-out: Inhibition of SVMP enzymatic activity EC50 BJA; B. jararaca venom; mean of n ≥ 3, range in brackets
Procedure: as §1, §2

[3] = tested on: SVMP activity of Bitis arietans venom; conditions: read-out: Inhibition of SVMP enzymatic activity EC50 BAR; B. arietans venom; mean of n ≥ 3, range in brackets
Procedure: as §1, §2

[4] = tested on: SVMP activity of Crotalus atrox venom; conditions: read-out: Inhibition of SVMP enzymatic activity EC50 CAT; C. atrox venom; mean of n ≥ 3, range in brackets
Procedure: as §1, §2

[5] = tested on: SVMP activity of Calloselasma rhodostoma venom; conditions: read-out: Inhibition of SVMP enzymatic activity EC50 CRH; C. rhodostoma venom; mean of n ≥ 3, range in brackets
Procedure: as §1, §2

physchem [6] = conditions: organic solvent / aqueous solvent at pH 7.4, pH 7.4
Procedure: (§3) The DMPK properties data described in the manuscript were measured via a high-throughput platform by AstraZeneca (United Kingdom).

physchem [7] = conditions: aqueous medium at pH 7.4, pH 7.4, aqueous buffer
Procedure: as §3

in vitro [8] = conditions: rat, hepatocytes
Procedure: as §3

in vitro [9] = conditions: human, microsomes
Procedure: as §3

[10] = tested on: procoagulant activity of E. romani venom; conditions: read-out: Coagulation assay EC50 E. romani; 10 ng E. romani venom, citrated bovine plasma; mean of n ≥ 3, range in brackets
Procedure: (§4) This assay consists of preincubating venom (or venom vehicle control) at a species-specific dose with the compound of interest (or compound vehicle control), then adding citrated bovine plasma to the wells and activating the clotting cascade with calcium chloride. […] Compounds of interest were stamped onto 384-well plates at a volume of 0.5 μL and a concentration of 10 mM in 100% DMSO. Positive and negative control wells were stamped with 0.5 μL of 100% DMSO. To the test wells and the venom-only positive control wells, 10 μL of venom diluted to 1 μg/mL (E. romani) or 10 μg/mL (B. jararaca) in PBS was added, giving a final well amount of 10 ng (E. romani) or 100 ng (B. jararaca) per well. In the no venom negative control wells, 10 μL of PBS was added. The plates were then sealed, span briefly in a Platefuge and incubated at 37 °C for 25 min to allow venom-inhibitor interaction. While the plates were incubating, sufficient citrated bovine plasma (S0260, BioWest) to allow 20 μL/well was centrifuged at 3120 RCF for 5 min to remove any residual cellular debris and the supernatant was collected. The 384-well plates were removed from the incubator for 5 min to allow acclimation to room temperature, then 20 μL/well of 20 mM CaCl2 was added and immediately followed by the addition of 20 μL/well of centrifuged citrated bovine plasma, both via a Multidrop Combi reagent dispenser (5840330, Thermo Fisher Scientific). The plates were then read kinetically using an absorbance protocol on a CLARIOStar microplate reader at 595 nm for 60 min. […] Dose response plates were conducted identically and the % inhibition values at each dose were used to draw EC50 curves to estimate the EC50 value of each compound tested. All coagulation experiments were repeated independently a minimum of three times.

[11] = tested on: procoagulant activity of B. jararaca venom; conditions: read-out: Coagulation assay EC50 B. jararaca; 100 ng B. jararaca venom, citrated bovine plasma; mean of n ≥ 3, range in brackets
Procedure: as §4

[12] = tested on: procoagulant venom activity (E. romani and B. jararaca); conditions: in words; coagulation assay
Procedure: as §4

[13] = tested on: E. romani P–I, P–II and P–III SVMPs; conditions: P–I, P–II, P–III SVMPs; drug 10 μM (P–I, P–II), 400 nM (P–III); gel
Procedure: (§5) Evaluation of SVMP toxin activity of human prothrombin and fibrinogen and inhibition by test compounds was performed by SDS-PAGE degradation gel electrophoresis using venom-purified toxins. P–I, P–II and P–III SVMPs were isolated using an adaptation of the method of Howes et al. Whole E. romani venom (15 mg) was initially separated using size exclusion chromatography (SEC) on a 120 mL column of Superdex 75 (Cytiva). The P–II SVMP (22 kDa) was pure and ready to use at this stage. P–I and P–III SVMP containing peaks were separately applied to a 1 mL high resolution hydrophobic interaction chromatography (HIC) column (SOURCE 15PHE, Cytiva). […] The P–I eluted as two peaks of proteins with identical molecular weight (21 kDa) which were combined back together. The P–III-containing fraction from SEC eluted from HIC as multiple peaks of P–III SVMP isoforms, well separated from the earlier eluting L-amino acid oxidase and high molecular weight C-type lectin-like proteins. The proteins in the PIII-containing peaks were pooled back together.
Degradation of human fibrinogen was measured in a similar manner. Human fibrinogen (Merck) was added at 5 μg/reaction and incubated with the different SVMP isoforms in the presence or absence of drugs. Drug concentrations used were 10 μM for P–I and P–II SVMP and 400 nM for P–III SVMP. The reactions consisted of 200 ng SVMP isoform and the appropriate concentration of drug, which were then incubated for 30 min at 37 °C in a water bath. Five micrograms of fibrinogen were then added and the samples incubated for another hour at 37 °C, before separation by SDS-PAGE as described above.

[14] = tested on: E. romani P–I and P–III SVMPs; conditions: drug 2 μM, gel
Procedure: as §5
Prothrombin degradation was measured by incubating 2 μg of human prothrombin (Hematologic Technologies INC) in the presence or absence of drug and the P–I, P–II, and P–III SVMPs. […] Briefly, drug or DMSO and 200 ng of purified SVMP isoform were incubated for 30 min at 37 °C in a water bath, after which 2 μg of human prothrombin were added and the samples incubated for another hour at 37 °C. Drug concentrations used were 2 μM for P–I and P–III SVMPs. Samples were then processed for loading onto a 4–20% SDS-PAGE gel (Biorad) and were run under reducing conditions for 45 min at 180 V. The gels were stained with Coomassie Brilliant Blue R250 and degradation profiles were visualized and images captured using a GelDoc (Biorad).

Procedure for human plasma protein: as §3

COCCN1CCN(S(=O)(=O)c2ccc(Oc3ccc(OC(F)(F)F)cc3)cc2)[C@@H](C(=O)NO)C1 [compound 16, (R)-N-Hydroxy-4-(2-methoxyethyl)-1-((4-(4-(trifluoromethoxy)phenoxy)phenyl)sulfonyl)piperazine-2-carboxamide]
EC50 [1]: 15.9 nM
EC50 [2]: 856 nM
EC50 [3]: 27.8 nM
EC50 [4]: 76.9 nM
EC50 [5]: 79.3 nM
Human Protein binding (%free) (human plasma protein): 3.0 %free
logD (physchem [6]): 2.9
solubility (physchem [7]): 437 µM (≈ 227 µg/mL)
hepatocyte CLint (in vitro [8]): 65.6 µL/min/1e6 cells
microsomal CLint (in vitro [9]): 8 µL/min/mg

COCCN1CCN(S(=O)(=O)c2ccc(OC)cc2)[C@@H](C(=O)NO)C1 [compound 20, (R)-N-Hydroxy-4-(2-methoxyethyl)-1-((4-methoxyphenyl)sulfonyl)piperazine-2-carboxamide]
EC50 [1]: 61.9 nM
EC50 [2]: 86.2 nM
EC50 [3]: 11.1 nM
EC50 [4]: 68.9 nM
EC50 [5]: 137 nM
Human Protein binding (%free) (human plasma protein): 82 %free
EC50 [10]: > 10000 nM
EC50 [11]: > 10000 nM
inhibition of procoagulant venom activity [12]: inactive
logD (physchem [6]): 0.1
solubility (physchem [7]): > 1000 µM
hepatocyte CLint (in vitro [8]): 57.1 µL/min/1e6 cells
microsomal CLint (in vitro [9]): < 3 µL/min/mg

COc1ccc(S(=O)(=O)N2CCN(S(=O)(=O)c3ccc(OC)cc3)[C@@H](C(=O)NO)C2)cc1 [compound 21, (R)-N-Hydroxy-1,4-bis((4-methoxyphenyl)sulfonyl)piperazine-2-carboxamide]
EC50 [1]: 15 nM
EC50 [2]: 18.2 nM
EC50 [3]: 10.6 nM
EC50 [4]: 32.5 nM
EC50 [5]: 58.8 nM
Human Protein binding (%free) (human plasma protein): 30 %free
EC50 [10]: 4590 nM
EC50 [11]: 3920 nM
logD (physchem [6]): 1
solubility (physchem [7]): 25 µM (≈ 12.1 µg/mL)
hepatocyte CLint (in vitro [8]): 199 µL/min/1e6 cells
microsomal CLint (in vitro [9]): 10.2 µL/min/mg

COc1ccc(S(=O)(=O)N2CCN(S(=O)(=O)c3c(C)noc3C)C[C@@H]2C(=O)NO)cc1 [compound 22, (R)-4-((3,5-Dimethylisoxazol-4-yl)sulfonyl)-N-hydroxy-1-((4-methoxyphenyl)sulfonyl)piperazine-2-carboxamide]
EC50 [1]: 10.7 nM
EC50 [2]: 17.8 nM
EC50 [3]: 9.8 nM
EC50 [4]: 35 nM
EC50 [5]: 53.3 nM
Human Protein binding (%free) (human plasma protein): 51 %free
EC50 [10]: 4850 nM
EC50 [11]: 1090 nM
logD (physchem [6]): 0.7
solubility (physchem [7]): > 1000 µM
hepatocyte CLint (in vitro [8]): 44 µL/min/1e6 cells
microsomal CLint (in vitro [9]): 17.5 µL/min/mg

COCCN1CCN(S(=O)(=O)c2ccc(Oc3ccc(C(F)(F)F)cc3)cc2)[C@@H](C(=O)NO)C1 [compound 28, (R)-N-Hydroxy-4-(2-methoxyethyl)-1-((4-(4-(trifluoromethyl)phenoxy)phenyl)sulfonyl)piperazine-2-carboxamide]
EC50 [1]: 7.6 nM
EC50 [2]: 1510 nM
EC50 [3]: 39.5 nM
EC50 [4]: 68.8 nM
EC50 [5]: 95.9 nM
Human Protein binding (%free) (human plasma protein): 3.4 %free
logD (physchem [6]): 2.7
solubility (physchem [7]): 320 µM (≈ 161 µg/mL)
hepatocyte CLint (in vitro [8]): 22.8 µL/min/1e6 cells
microsomal CLint (in vitro [9]): 8.6 µL/min/mg

CC1(C)SCCN(S(=O)(=O)c2ccc(Oc3ccncc3)cc2)[C@H]1C(=O)NO [Prinomastat, prinomastat, reference compound]
EC50 [10]: 558 nM
EC50 [11]: 972 nM
inhibition of procoagulant venom activity [12]: demonstrated inhibition of procoagulant activity
protection against degradation of fibrinogen [13]: protected against the degradation of fibrinogen
protection against prothrombin degradation [14]: almost full protection

COCCN1CCN(S(=O)(=O)c2ccc(Oc3ccc(Cl)cc3)cc2)[C@@H](C(=O)NO)C1 [compound 15, (R)-1-((4-(4-Chlorophenoxy)phenyl)sulfonyl)-N-hydroxy-4-(2-methoxyethyl)piperazine-2-carboxamide]
EC50 [1]: 7.9 nM
EC50 [2]: 232 nM
EC50 [3]: 19.9 nM
EC50 [4]: 47.9 nM
EC50 [5]: 22.5 nM
Human Protein binding (%free) (human plasma protein): 2.3 %free
logD (physchem [6]): 2.4
solubility (physchem [7]): 431 µM (≈ 203 µg/mL)
hepatocyte CLint (in vitro [8]): > 300 µL/min/1e6 cells
microsomal CLint (in vitro [9]): < 3 µL/min/mg

COCCN1CCN(S(=O)(=O)c2ccc(-c3ccc(F)cc3)cc2)[C@@H](C(=O)NO)C1 [compound 30, (R)-1-((4′-Fluoro-[1,1′-biphenyl]-4-yl)sulfonyl)-N-hydroxy-4-(2-methoxyethyl)piperazine-2-carboxamide]
EC50 [1]: 18.5 nM
EC50 [2]: 27.1 nM
EC50 [3]: 1.8 nM
EC50 [4]: 18.6 nM
EC50 [5]: 125 nM
Human Protein binding (%free) (human plasma protein): 14.0 %free
EC50 [10]: > 10000 nM
EC50 [11]: > 10000 nM
inhibition of procoagulant venom activity [12]: inactive
logD (physchem [6]): 1.9
solubility (physchem [7]): 468 µM (≈ 205 µg/mL)
hepatocyte CLint (in vitro [8]): > 300 µL/min/1e6 cells
microsomal CLint (in vitro [9]): 7.1 µL/min/mg

COCCN1CCN(S(=O)(=O)c2ccc(-c3ccc(Cl)cc3)cc2)[C@@H](C(=O)NO)C1 [compound 29, (R)-1-((4′-Chloro-[1,1′-biphenyl]-4-yl)sulfonyl)-N-hydroxy-4-(2-methoxyethyl)piperazine-2-carboxamide]
EC50 [1]: 16.1 nM
EC50 [2]: 38.9 nM
EC50 [3]: 3.5 nM
EC50 [4]: 52.7 nM
EC50 [5]: 220 nM
Human Protein binding (%free) (human plasma protein): 5.2 %free
EC50 [10]: > 10000 nM
EC50 [11]: > 10000 nM
inhibition of procoagulant venom activity [12]: inactive
logD (physchem [6]): 2.5
solubility (physchem [7]): 310 µM (≈ 141 µg/mL)
hepatocyte CLint (in vitro [8]): 21.1 µL/min/1e6 cells
microsomal CLint (in vitro [9]): 5.1 µL/min/mg

COc1ccc(S(=O)(=O)N2CCNC[C@@H]2C(=O)NO)cc1.Cl [compound 18, (R)-N-Hydroxy-1-((4-methoxyphenyl)sulfonyl)piperazine-2-carboxamide hydrochloride salt]
EC50 [1]: 47.6 nM
EC50 [2]: 56.1 nM
EC50 [3]: 24.7 nM
EC50 [4]: 69.3 nM
EC50 [5]: 83.3 nM
Human Protein binding (%free) (human plasma protein): 91 %free
logD (physchem [6]): -0.2
solubility (physchem [7]): 231 µM
hepatocyte CLint (in vitro [8]): 6.3 µL/min/1e6 cells
microsomal CLint (in vitro [9]): < 3 µL/min/mg

COCCN1CCN(S(=O)(=O)c2ccc(Oc3ccc(OC)cc3)cc2)[C@@H](C(=O)NO)C1 [compound 17, (R)-N-Hydroxy-4-(2-methoxyethyl)-1-((4-(4-methoxyphenoxy)phenyl)sulfonyl)piperazine-2-carboxamide]
EC50 [1]: 1.1 nM
EC50 [2]: 209 nM
EC50 [3]: 10.4 nM
EC50 [4]: 31.1 nM
EC50 [5]: 11.9 nM
Human Protein binding (%free) (human plasma protein): 6.4 %free
logD (physchem [6]): 1.9
solubility (physchem [7]): 236 µM (≈ 110 µg/mL)
hepatocyte CLint (in vitro [8]): 209 µL/min/1e6 cells
microsomal CLint (in vitro [9]): > 300 µL/min/mg

COc1ccc(S(=O)(=O)N2CCN(S(C)(=O)=O)C[C@@H]2C(=O)NO)cc1 [compound 19, (R)-N-Hydroxy-1-((4-methoxyphenyl)sulfonyl)-4-(methylsulfonyl)piperazine-2-carboxamide]
EC50 [1]: 10.9 nM
EC50 [2]: 20 nM
EC50 [3]: 14.3 nM
EC50 [4]: 45.3 nM
EC50 [5]: 62.9 nM
Human Protein binding (%free) (human plasma protein): 88 %free
EC50 [10]: 496 nM
EC50 [11]: 509 nM
logD (physchem [6]): -0.3
solubility (physchem [7]): < 1000 µM
hepatocyte CLint (in vitro [8]): 8.9 µL/min/1e6 cells
microsomal CLint (in vitro [9]): < 3 µL/min/mg

Reference: paper PMC13126677 (Journal of Medicinal Chemistry, 2026)
